In patent publication US11098238B2, “Tracer and method” (JOHNSON MATTHEY PUBLIC LIMITED COMPANY, priority 2016, dated 2021):

Columns and labels:
[1] = log Kow (octanol/water partition coefficient); format: physicochemical; conditions: for Log Kow: base-10 logarithm of ratio of equilibrium concentrations in octanol and water
Excerpt: Preferably the system is an oil reservoir and the property is the residual oil saturation. Thus, preferably the use is of a partitioning tracer for determining residual oil saturation, the partitioning tracer comprising a sulfone compound having a log Kow value in the range −0.5 to 3. Preferably the log Kow value is in the range 0.5 to 1.5. Those ranges may give optimum partitioning into the oil in the formation. If the log Kow value is too high, the partitioning tracer will spend too long in the oil and will not be released from the well in a reasonable time, or even at all. If the log Kow value is too low, the partitioning tracer will largely remain in the water phase and there will not be a sufficient differential between the release of the conservative and partitioning tracers. The log Kow value is the base-10 logarithm of the ratio of the equilibrium concentrations of the tracer in octanol and water and can be determined for example, by the method described in “Experimental Aspects of Partitioning Tracer Tests for Residual Oil Saturation Determination with FIA-based Laboratory Equipment, SPE Reservoir Engineering, May 1990, pages 239-244”.
The log Kow values are either experimentally determined or estimated using KOWWIN v1.68.

## CS(=O)(=O)c1ccc(Cl)cc1 [4-Chlorophenyl methyl sulfone, 4-chlorophenyl methyl sulfone]
[1]
  Log Kow: 1.21

## OC(C(F)(F)F)C(F)(F)F [1,1,1,3,3,3-Hexafluoro-2-propanol, 1,1,1,3,3,3-hexafluoro-2-propanol]
[1]
  Log Kow: 1.66
Vapour pressure
  Vapour Pressure: 156 mm Hg

## OCc1ccc(Cl)cc1 [4-Chlorobenzyl alcohol, 4-chlorobenzyl alcohol]
[1]
  Log Kow: 1.72
Vapour pressure
  Vapour Pressure: 0.00268 mm Hg

## CS(C)(=O)=O [dimethylsulfone]
[1]
  log Kow value: −1.11
